# In patent US12258327B2, “5-membered heteroaryl-containing aminopyridine compounds as EGFR inhibitors” (YUHAN CORPORATION, priority 2021, dated 2025):
# Read-outs that look alike come from different tables or passages of the source.
# Legend:
# [1] = molecular target: EGFR del19/T790M/C797S (Homo sapiens, UniProt P00533, C797S/DEL746-750/T790M); test: Biochemical EGFR kinase assay (Lance Ultra TR-FRET), triple mutant del19/T790M/C797S
# Procedure, shortened: (§1)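 Step 1: compound in kinase buffer, 0.003–10 μM. Step 2: kinase reaction 1 h at room temperature. Step 4: TR-FRET read at 615/665 nm; IC50 calculated.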
# [2] = molecular target: EGFR L858R/C797S (Homo sapiens, UniProt P00533, C797S/L858R); test: Biochemical EGFR kinase assay (Lance Ultra TR-FRET), double mutant L858R/C797S
# Procedure, shortened: as §1
# [3] = molecular target: EGFR L858R/T790M/C797S (Homo sapiens, UniProt P00533, C797S/L858R/T790M); test: Biochemical EGFR kinase assay (Lance Ultra TR-FRET), triple mutant L858R/T790M/C797S
# Procedure, shortened: as §1
# [4] = molecular target: EGFR wildtype (WT) (Homo sapiens, UniProt P00533); test: Biochemical EGFR kinase assay (Lance Ultra TR-FRET), wildtype
# Procedure, shortened: as §1
# [5] = molecular target: EGFR del19/C797S (Homo sapiens, UniProt P00533, C797S/DEL746-750); test: Biochemical EGFR kinase assay (Lance Ultra TR-FRET), double mutant del19/C797S
# Procedure, shortened: as §1
# [6] = IC50 del19/T790M/C797S (nM) 100 μM ATP, 100 μM ATP
# [7] = Km ATP, read-out: IC50 del19/T790M/C797S (nM) Km ATP
# [8] = IC50 L858R/C797S (nM) 100 μM ATP, 100 μM ATP
# [9] = Km ATP, read-out: IC50 L858R/C797S (nM) Km ATP
# [10] = IC50 L858R/T790M/C797S (nM) 100 μM ATP, 100 μM ATP
# [11] = Km ATP, read-out: IC50 L858R/T790M/C797S (nM) Km ATP
# [12] = IC50 WT (nM) 100 μM ATP, 100 μM ATP
# [13] = Km ATP, read-out: IC50 WT (nM) Km ATP
# [14] = IC50 del19/C797S (nM) 100 μM ATP, 100 μM ATP
# [15] = Km ATP, read-out: IC50 del19/C797S (nM) Km ATP
# EGFR del19/C797S, sequence (P00533 with tags, fused parts or gaps DEL746-750/C797S): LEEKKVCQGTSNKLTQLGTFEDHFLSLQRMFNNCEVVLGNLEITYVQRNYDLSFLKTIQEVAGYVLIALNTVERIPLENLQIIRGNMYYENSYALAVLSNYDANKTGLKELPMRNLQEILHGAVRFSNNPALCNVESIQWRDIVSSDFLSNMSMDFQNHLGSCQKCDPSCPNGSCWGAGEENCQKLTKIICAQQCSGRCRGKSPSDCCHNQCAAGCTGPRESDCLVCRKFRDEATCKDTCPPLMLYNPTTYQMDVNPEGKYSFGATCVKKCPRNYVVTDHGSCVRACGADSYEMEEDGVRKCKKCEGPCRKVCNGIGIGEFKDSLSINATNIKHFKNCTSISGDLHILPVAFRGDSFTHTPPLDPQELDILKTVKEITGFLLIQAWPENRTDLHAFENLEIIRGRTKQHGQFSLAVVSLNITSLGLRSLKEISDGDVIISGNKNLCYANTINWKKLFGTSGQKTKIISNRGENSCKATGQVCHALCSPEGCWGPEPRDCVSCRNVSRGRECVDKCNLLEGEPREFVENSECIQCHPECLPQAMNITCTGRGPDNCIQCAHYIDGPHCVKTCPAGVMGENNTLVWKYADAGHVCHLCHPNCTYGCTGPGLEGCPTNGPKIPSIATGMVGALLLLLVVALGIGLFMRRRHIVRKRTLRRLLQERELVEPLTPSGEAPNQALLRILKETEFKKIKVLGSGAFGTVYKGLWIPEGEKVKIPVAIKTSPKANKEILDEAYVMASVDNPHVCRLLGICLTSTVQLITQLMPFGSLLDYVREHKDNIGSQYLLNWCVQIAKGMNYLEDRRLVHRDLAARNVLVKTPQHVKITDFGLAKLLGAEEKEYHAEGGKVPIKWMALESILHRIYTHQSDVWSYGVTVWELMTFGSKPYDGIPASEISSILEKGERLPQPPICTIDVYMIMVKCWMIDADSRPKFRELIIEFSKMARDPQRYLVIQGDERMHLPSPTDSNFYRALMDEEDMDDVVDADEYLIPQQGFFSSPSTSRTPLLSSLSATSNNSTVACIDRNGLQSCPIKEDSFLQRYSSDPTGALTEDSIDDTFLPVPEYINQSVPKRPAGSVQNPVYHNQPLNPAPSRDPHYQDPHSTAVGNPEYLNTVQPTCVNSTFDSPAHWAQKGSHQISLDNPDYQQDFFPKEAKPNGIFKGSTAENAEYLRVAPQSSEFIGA
# EGFR del19/T790M/C797S, sequence (P00533 with tags, fused parts or gaps DEL746-750/T790M/C797S): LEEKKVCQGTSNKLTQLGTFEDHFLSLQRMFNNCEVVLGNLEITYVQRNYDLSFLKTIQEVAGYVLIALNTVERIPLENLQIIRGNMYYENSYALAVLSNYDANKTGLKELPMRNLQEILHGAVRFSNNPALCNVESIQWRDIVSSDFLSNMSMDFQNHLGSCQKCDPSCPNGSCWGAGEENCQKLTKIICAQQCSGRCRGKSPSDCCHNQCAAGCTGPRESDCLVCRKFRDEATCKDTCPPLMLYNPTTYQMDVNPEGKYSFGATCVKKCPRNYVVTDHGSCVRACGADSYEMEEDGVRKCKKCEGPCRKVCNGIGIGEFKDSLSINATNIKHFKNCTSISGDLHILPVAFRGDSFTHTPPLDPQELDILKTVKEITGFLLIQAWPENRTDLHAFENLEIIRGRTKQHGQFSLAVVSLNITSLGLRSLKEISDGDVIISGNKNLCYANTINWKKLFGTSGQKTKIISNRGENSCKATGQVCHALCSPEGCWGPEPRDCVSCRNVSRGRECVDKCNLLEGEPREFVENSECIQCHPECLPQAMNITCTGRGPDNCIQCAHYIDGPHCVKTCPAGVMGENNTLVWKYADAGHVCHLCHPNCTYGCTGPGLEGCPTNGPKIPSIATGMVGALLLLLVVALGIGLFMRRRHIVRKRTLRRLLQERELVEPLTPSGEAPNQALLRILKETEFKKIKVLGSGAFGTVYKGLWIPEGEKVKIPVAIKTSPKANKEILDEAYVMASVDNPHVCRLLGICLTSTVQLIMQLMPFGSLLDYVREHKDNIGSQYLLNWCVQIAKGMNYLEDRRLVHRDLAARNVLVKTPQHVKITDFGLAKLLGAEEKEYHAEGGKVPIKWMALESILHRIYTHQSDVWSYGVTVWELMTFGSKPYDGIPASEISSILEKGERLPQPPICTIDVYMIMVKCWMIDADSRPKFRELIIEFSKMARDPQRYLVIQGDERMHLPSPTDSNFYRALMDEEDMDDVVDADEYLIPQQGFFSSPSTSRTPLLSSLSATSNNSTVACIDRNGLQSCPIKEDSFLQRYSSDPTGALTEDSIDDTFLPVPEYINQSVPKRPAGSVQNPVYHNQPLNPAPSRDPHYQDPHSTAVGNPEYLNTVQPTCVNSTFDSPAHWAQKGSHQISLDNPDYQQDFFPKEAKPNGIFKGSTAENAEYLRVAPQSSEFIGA
# EGFR L858R/C797S, sequence (P00533 25-1210 C797S/L858R): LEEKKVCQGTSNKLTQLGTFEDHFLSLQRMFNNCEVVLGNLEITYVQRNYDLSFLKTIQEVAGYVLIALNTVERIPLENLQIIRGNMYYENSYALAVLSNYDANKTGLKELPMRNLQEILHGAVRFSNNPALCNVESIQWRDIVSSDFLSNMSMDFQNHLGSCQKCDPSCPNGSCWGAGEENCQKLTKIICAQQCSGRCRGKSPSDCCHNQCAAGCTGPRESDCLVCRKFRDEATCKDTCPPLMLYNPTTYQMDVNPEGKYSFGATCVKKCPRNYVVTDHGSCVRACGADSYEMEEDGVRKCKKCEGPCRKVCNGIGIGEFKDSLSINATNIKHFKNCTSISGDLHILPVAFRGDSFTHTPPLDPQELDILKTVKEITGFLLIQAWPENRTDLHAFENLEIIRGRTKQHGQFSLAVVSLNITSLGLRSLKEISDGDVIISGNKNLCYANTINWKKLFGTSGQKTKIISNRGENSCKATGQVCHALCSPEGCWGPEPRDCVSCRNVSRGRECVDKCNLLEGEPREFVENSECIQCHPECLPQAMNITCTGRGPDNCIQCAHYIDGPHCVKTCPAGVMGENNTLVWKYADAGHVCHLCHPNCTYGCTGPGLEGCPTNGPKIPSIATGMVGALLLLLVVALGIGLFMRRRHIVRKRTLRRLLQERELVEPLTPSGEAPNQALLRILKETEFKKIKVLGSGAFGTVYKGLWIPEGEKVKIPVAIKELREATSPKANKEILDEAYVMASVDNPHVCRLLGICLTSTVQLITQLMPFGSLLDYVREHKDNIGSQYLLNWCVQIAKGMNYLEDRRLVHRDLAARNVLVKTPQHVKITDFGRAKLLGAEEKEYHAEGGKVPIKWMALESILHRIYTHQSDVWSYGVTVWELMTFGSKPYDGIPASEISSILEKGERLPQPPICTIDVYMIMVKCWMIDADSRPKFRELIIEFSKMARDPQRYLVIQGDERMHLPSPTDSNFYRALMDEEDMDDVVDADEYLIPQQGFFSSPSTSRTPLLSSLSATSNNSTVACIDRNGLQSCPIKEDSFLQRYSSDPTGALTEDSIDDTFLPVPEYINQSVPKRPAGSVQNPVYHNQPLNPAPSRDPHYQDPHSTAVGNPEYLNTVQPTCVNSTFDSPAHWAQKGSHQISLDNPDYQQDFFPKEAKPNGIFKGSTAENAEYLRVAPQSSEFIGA
# EGFR wildtype (WT), sequence (P00533 25-1210): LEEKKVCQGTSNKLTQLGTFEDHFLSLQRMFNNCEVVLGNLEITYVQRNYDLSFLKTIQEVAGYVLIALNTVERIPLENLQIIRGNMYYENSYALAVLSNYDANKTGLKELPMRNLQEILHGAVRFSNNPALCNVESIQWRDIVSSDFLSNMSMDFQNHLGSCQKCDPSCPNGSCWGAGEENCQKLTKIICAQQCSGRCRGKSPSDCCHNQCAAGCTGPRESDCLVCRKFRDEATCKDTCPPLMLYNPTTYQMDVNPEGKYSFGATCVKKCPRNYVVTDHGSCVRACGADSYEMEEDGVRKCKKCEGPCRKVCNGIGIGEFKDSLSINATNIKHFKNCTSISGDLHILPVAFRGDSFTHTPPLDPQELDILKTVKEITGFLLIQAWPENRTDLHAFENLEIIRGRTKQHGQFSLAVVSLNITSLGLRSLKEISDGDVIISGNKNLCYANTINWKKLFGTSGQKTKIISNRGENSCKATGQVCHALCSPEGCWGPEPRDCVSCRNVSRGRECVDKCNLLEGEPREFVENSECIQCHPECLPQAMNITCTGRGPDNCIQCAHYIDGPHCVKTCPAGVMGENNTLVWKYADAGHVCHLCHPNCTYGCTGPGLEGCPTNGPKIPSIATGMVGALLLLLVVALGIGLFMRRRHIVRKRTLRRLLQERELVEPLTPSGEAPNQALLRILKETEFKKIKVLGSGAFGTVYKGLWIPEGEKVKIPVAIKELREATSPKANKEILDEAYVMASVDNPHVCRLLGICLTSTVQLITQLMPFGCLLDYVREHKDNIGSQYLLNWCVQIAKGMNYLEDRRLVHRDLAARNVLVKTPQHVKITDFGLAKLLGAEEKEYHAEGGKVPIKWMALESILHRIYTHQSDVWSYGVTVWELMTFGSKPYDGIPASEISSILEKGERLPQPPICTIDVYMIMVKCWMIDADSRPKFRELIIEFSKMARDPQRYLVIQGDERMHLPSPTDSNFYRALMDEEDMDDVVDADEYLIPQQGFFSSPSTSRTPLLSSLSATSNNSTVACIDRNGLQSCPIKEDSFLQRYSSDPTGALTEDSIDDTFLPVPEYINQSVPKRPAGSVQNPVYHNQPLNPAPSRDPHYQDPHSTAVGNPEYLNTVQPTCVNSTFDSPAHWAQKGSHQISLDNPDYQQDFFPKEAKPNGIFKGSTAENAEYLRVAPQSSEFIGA
SMILES,"IC50 [1, 6]","IC50 [1, 7]","IC50 [2, 8]","IC50 [2, 9]","IC50 [3, 10]","IC50 [3, 11]","IC50 [4, 12]","IC50 [4, 13]","IC50 [5, 14]","IC50 [5, 15]"
"C[C@]1(O)CC[C@@H](Nc2cc(Nc3nc(-c4cnn(S(=O)(=O)C5CC5)c4)ncc3F)ncc2-c2ccn(C(F)F)n2)CC1 [Example 316, (1s,4s)-4-((2-((2-(1-(Cyclopropylsulfonyl)-1H-pyrazol-4-yl)-5-fluoropyrimidin-4-yl)amino)-5-(1-(difluoromethyl)-1H-pyrazol-3-yl)pyridin-4-yl)amino)-1-methylcyclohexan-1-ol]",0.7 nM,0.4 nM,406 nM,11.2 nM,1 nM,0.2 nM,> 10000 nM,46 nM,10.5 nM,6 nM
"CN(C)S(=O)(=O)n1cc(-c2nccc(Nc3cc(N[C@H]4CC[C@@](C)(O)CC4)c(-c4ccn(C(F)F)n4)cn3)n2)cn1 [Example 317, 4-(4-((5-(1-(Difluoromethyl)-1H-pyrazol-3-yl)-4-(((1s,4s)-4-hydroxy-4-methylcyclohexyl)amino)pyridin-2-yl)amino)pyrimidin-2-yl)-N,N-dimethyl-1H-pyrazole-1-sulfonamide]",0.3 nM,0.5 nM,53.6 nM,2.2 nM,0.2 nM,0.1 nM,> 10000 nM,12.1 nM,16.8 nM,5.5 nM
"CC1(O)CCC(Nc2cc(Nc3ccnc(-c4cnn(C5CCCO5)c4)n3)ncc2-c2ccn(C(F)F)n2)CC1 (stereo not drawn) [Example 318, (1s,4s)-4-((5-(1-(Difluoromethyl)-1H-pyrazol-3-yl)-2-((2-(1-(tetrahydrofuran-2-yl)-1H-pyrazol-4-yl)pyrimidin-4-yl)amino)pyridin-4-yl)amino)-1-methylcyclohexan-1-ol]",3 nM,3.6 nM,277 nM,42.7 nM,4.8 nM,0.5 nM,> 10000 nM,255 nM,290 nM,57.1 nM
"Cc1nn(C)c(F)c1-c1nccc(Nc2cc(N[C@H]3CC[C@@](C)(O)CC3)c(-c3ccn(C(F)F)n3)cn2)n1 [Example 319, (1s,4s)-4-((5-(1-(Difluoromethyl)-1H-pyrazol-3-yl)-2-((2-(5-fluoro-1,3-dimethyl-1H-pyrazol-4-yl)pyrimidin-4-yl)amino)pyridin-4-yl)amino)-1-methylcyclohexan-1-ol]",,0.4 nM,,16.9 nM,,0.3 nM,,184 nM,,47.3 nM
"Cc1nn(CC(F)(F)F)cc1-c1nccc(Nc2cc(N[C@H]3CC[C@@](C)(O)CC3)c(-c3ccn(C(F)F)n3)cn2)n1 [Example 320, (1s,4s)-4-((5-(1-(Difluoromethyl)-1H-pyrazol-3-yl)-2-((2-(3-methyl-1-(2,2,2-trifluoroethyl)-1H-pyrazol-4-yl)pyrimidin-4-yl)amino)pyridin-4-yl)amino)-1-methylcyclohexan-1-ol]",,0.4 nM,,1.8 nM,,0.2 nM,,33.5 nM,,3.9 nM
"Cc1nn(CC(F)F)c(C)c1-c1nccc(Nc2cc(N[C@H]3CC[C@@](C)(O)CC3)c(-c3ccn(C(F)F)n3)cn2)n1 [Example 321, (1s,4s)-4-((2-((2-(1-(2,2-Difluoroethyl)-3,5-dimethyl-1H-pyrazol-4-yl)pyrimidin-4-yl)amino)-5-(1-(difluoromethyl)-1H-pyrazol-3-yl)pyridin-4-yl)amino)-1-methylcyclohexan-1-ol]",,2.8 nM,,10.4 nM,,2.3 nM,,74.8 nM,,20.2 nM
"C[C@]1(O)CC[C@@H](Nc2cc(Nc3ccnc(-c4cnn(CC(F)(F)C(F)F)c4)n3)ncc2-c2ccn(C(F)F)n2)CC1 [Example 322, (1s,4s)-4-((5-(1-(Difluoromethyl)-1H-pyrazol-3-yl)-2-((2-(1-(2,2,3,3-tetrafluoropropyl)-1H-pyrazol-4-yl)pyrimidin-4-yl)amino)pyridin-4-yl)amino)-1-methylcyclohexan-1-ol]",,1.9 nM,,15.5 nM,,0.6 nM,,1520 nM,,176 nM
"C[C@]1(O)CC[C@@H](Nc2cc(Nc3ccnc(-c4cnn(S(=O)(=O)N5CCCC5)c4)n3)ncc2-c2ccn(C(F)F)n2)CC1 [Example 323, (1s,4s)-4-((5-(1-(Difluoromethyl)-1H-pyrazol-3-yl)-2-((2-(1-(pyrrolidin-1-ylsulfonyl)-1H-pyrazol-4-yl)pyrimidin-4-yl)amino)pyridin-4-yl)amino)-1-methylcyclohexan-1-ol]",,10.4 nM,,143 nM,,4.6 nM,,466 nM,,1060 nM
"C[C@]1(O)CC[C@@H](Nc2cc(Nc3ccnc(-c4cnn(S(=O)(=O)N5CC(F)C5)c4)n3)ncc2-c2ccn(C(F)F)n2)CC1 [Example 324, (1s,4s)-4-((5-(1-(Difluoromethyl)-1H-pyrazol-3-yl)-2-((2-(1-((3-fluoroazetidin-1-yl)sulfonyl)-1H-pyrazol-4-yl)pyrimidin-4-yl)amino)pyridin-4-yl)amino)-1-methylcyclohexan-1-ol]",,4.6 nM,,13.2 nM,,1.7 nM,,55.5 nM,,66.9 nM
"CN(C)CC[C@H]1CC[C@@H](Nc2cc(Nc3nc(-c4cnn(S(=O)(=O)C5CC5)c4)ncc3F)ncc2-c2ccn(C(F)F)n2)CC1 [Example 325, N^2-(2-(1-(Cyclopropylsulfonyl)-1H-pyrazol-4-yl)-5-fluoropyrimidin-4-yl)-5-(1-(difluoromethyl)-1H-pyrazol-3-yl)-N^4-((1s,4s)-4-(2-(dimethylamino)ethyl)cyclohexyl)pyridine-2,4-diamine]",,0.2 nM,,0.3 nM,,0.1 nM,,1.2 nM,,0.6 nM
"Cc1nn(CC(F)(F)F)cc1-c1nccc(Nc2cc(N[C@H]3CC[C@@H](CCO)CC3)c(-c3ccn(C(F)F)n3)cn2)n1 [Example 326, 2-((1s,4s)-4-((5-(1-(Difluoromethyl)-1H-pyrazol-3-yl)-2-((2-(3-methyl-1-(2,2,2-trifluoroethyl)-1H-pyrazol-4-yl)pyrimidin-4-yl)amino)pyridin-4-yl)amino)cyclohexyl)ethan-1-ol]",,1.4 nM,,7.9 nM,,0.7 nM,,18.8 nM,,13.3 nM
"O=S(=O)(C1CC1)n1cc(-c2ncc(F)c(Nc3cc(N[C@H]4CC[C@@H](CN5CCC5)CC4)c(-c4ccn(C(F)F)n4)cn3)n2)cn1 [Example 327, N^4-((1s,4s)-4-(Azetidin-1-ylmethyl)cyclohexyl)-N^2-(2-(1-(cyclopropylsulfonyl)-1H-pyrazol-4-yl)-5-fluoropyrimidin-4-yl)-5-(1-(difluoromethyl)-1H-pyrazol-3-yl)pyridine-2,4-diamine]",,0.4 nM,,2.8 nM,,0.2 nM,,6.5 nM,,1.7 nM
"Cn1nc(-c2cnc(Nc3nc(-c4cnn(S(=O)(=O)C5CC5)c4)ncc3F)cc2N[C@H]2CC[C@@](C)(O)CC2)cc1C(F)(F)F [Example 328, (1s,4s)-4-((2-((2-(1-(Cyclopropylsulfonyl)-1H-pyrazol-4-yl)-5-fluoropyrimidin-4-yl)amino)-5-(1-methyl-5-(trifluoromethyl)-1H-pyrazol-3-yl)pyridin-4-yl)amino)-1-methylcyclohexan-1-ol]",8 nM,4.8 nM,378 nM,19.5 nM,6.5 nM,2 nM,> 10000 nM,110 nM,11.5 nM,9.3 nM
"Cn1nc(-c2cnc(Nc3ccnc(-c4cnn(CC(F)(F)F)c4)n3)cc2N[C@H]2CC[C@@](C)(O)CC2)cc1C(F)(F)F [Example 329, (1s,4s)-1-Methyl-4-((5-(1-methyl-5-(trifluoromethyl)-1H-pyrazol-3-yl)-2-((2-(1-(2,2,2-trifluoroethyl)-1H-pyrazol-4-yl)pyrimidin-4-yl)amino)pyridin-4-yl)amino)cyclohexan-1-ol]",6.5 nM,2.5 nM,1140 nM,75 nM,4.1 nM,1.2 nM,> 10000 nM,288 nM,37.1 nM,24.6 nM
"CN(C)S(=O)(=O)n1cc(-c2nccc(Nc3cc(N[C@H]4CC[C@@](C)(O)CC4)c(-c4cc(C(F)(F)F)n(C)n4)cn3)n2)cn1 [Example 330, 4-(4-((4-(((1s,4s)-4-Hydroxy-4-methylcyclohexyl)amino)-5-(1-methyl-5-(trifluoromethyl)-1H-pyrazol-3-yl)pyridin-2-yl)amino)pyrimidin-2-yl)-N,N-dimethyl-1H-pyrazole-1-sulfonamide]",2.2 nM,2.6 nM,63.3 nM,1.6 nM,3.9 nM,1.1 nM,> 10000 nM,65.3 nM,35.1 nM,15.7 nM
